The IC50 is the point on the concentration scale where inhibition reaches its midpoint.

In this assay the target is T1, PI3Kγ (p101/p110γ protein) (Homo sapiens, UniProt P48736).
T1 construct: HA; made in house; host or cells: Spodoptera frugiperda (Sf9) cells, baculovirus co-infection
Kind of assay: PI3Kγ In Vitro Kinase Assay. The format is biochemical. The note with it: purified recombinant p101/p110γ with G protein β1/γ2 subunits; 20 μM ATP, 25 μM PIP2; 20 minutes at room temperature. The method in brief:
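Sf9-expressed, purified human p101/p110γ (2.7 nM) was activated by Gβ1/γ2 (57.7 nM) and reacted with 20 μM ATP plus [γ-32P]ATP on PIP2 (25 μM)/PE (300 μM) micelles with 10 mM MgCl2 in HEPES buffer. Reactions ran 20 min at room temperature. Filter-captured radiolabeled PIP3 was counted by scintillation.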

Structures are written as SMILES.

T1 sequence (P48736 whole entry, species assumed): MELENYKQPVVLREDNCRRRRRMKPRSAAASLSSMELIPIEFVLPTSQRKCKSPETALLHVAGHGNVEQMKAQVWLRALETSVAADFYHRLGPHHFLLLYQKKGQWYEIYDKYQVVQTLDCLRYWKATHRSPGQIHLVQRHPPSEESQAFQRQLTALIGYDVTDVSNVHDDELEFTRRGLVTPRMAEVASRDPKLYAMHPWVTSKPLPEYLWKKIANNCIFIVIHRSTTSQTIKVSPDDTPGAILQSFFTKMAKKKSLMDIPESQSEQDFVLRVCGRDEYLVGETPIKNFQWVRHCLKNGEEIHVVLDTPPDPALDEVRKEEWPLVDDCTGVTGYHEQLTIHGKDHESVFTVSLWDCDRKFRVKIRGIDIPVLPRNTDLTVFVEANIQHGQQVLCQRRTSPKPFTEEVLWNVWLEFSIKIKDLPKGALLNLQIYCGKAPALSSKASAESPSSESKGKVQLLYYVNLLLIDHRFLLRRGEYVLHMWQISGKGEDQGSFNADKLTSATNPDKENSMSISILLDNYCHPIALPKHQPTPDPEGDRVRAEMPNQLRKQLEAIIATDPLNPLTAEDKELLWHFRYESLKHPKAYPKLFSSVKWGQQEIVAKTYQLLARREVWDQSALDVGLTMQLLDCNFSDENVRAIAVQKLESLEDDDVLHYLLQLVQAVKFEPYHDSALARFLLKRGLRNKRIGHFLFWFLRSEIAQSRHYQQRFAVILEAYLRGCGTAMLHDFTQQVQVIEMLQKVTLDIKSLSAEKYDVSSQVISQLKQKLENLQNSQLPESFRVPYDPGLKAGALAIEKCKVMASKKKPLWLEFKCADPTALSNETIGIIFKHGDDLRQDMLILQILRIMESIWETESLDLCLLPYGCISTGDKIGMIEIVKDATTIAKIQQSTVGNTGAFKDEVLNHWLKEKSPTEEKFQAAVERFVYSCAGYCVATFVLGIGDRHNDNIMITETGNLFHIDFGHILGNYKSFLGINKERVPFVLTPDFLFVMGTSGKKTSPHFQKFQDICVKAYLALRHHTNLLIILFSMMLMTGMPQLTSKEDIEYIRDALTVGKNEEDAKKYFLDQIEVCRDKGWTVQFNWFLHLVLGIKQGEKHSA
T1 sequence (Q8WYR1 whole entry partner, species assumed): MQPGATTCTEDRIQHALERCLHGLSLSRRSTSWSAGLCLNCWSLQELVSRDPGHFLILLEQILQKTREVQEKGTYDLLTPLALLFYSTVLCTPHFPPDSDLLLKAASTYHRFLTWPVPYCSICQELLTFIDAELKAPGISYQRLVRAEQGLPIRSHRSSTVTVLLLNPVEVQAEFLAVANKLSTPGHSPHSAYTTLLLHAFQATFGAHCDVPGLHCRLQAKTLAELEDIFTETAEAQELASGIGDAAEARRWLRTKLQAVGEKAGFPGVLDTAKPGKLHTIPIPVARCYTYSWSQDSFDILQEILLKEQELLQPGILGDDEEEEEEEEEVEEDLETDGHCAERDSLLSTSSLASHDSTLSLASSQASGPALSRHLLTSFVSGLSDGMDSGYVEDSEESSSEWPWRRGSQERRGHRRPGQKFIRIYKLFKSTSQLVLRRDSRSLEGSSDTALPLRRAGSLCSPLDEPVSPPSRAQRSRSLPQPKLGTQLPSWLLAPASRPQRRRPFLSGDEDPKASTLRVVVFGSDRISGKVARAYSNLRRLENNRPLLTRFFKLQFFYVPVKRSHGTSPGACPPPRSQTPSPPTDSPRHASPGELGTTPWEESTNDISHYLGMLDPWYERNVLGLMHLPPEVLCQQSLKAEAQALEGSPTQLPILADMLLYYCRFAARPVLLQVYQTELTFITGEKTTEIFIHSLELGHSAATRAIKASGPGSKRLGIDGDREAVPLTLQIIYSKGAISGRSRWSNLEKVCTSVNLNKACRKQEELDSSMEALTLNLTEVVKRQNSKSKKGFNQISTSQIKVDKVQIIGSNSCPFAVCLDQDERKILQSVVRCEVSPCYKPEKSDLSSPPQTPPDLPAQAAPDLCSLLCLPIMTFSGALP

With `O=C1NC(=O)C(=Cc2cc(F)c3c(c2)N(Cc2ccc(CN4CCCCC4)cc2)C(=O)CO3)S1` [Example 76, 5-[8-Fluoro-3-oxo-4-(4-piperidin-1-ylmethyl-benzyl)-3,4-dihydro-2H-1,4-benzoxazin-6-ylmethylene]-thiazolidine-2,4-dione], the 50% inhibitory concentration (IC50) came to 6 nM.
The result for `CCCCN1CCN(Cc2ccc(CN3C(=O)COc4ccc(C=C5SC(=S)NC5=O)cc43)cc2)CC1` [Example 77, 4-[4-(4-Butyl-piperazin-1-ylmethyl)-benzyl]-6-(4-oxo-2-thioxo-thiazolidin-5-ylidenemethyl)-4H-1,4-benzoxazin-3-one] reads 21 nM.
The result for `CCN(CC)Cc1ccc(CN2C(=O)COc3c(Cl)cc(C=C4SC(=S)NC4=O)cc32)cc1` [Example 78, 8-Chloro-4-(4-diethylaminomethyl-benzyl)-6-(4-oxo-2-thioxo-thiazolidin-5-ylidenemethyl)-4H-1,4-benzoxazin-3-one] reads 57 nM; that for `O=C1NC(=S)SC1=Cc1cc(Cl)c2c(c1)N(Cc1ccc(CN3CCCCC3)cc1)C(=O)CO2` [Example 79, 8-Chloro-6-(4-oxo-2-thioxo-thiazolidin-5-ylidenemethyl)-4-(4-piperidin-1-ylmethyl-benzyl)-4H-1,4-benzoxazin-3-one; compound with Toluene-4-sulfonic acid], 20 nM.
As to `O=C1NC(=S)SC1=Cc1cc(Cl)c2c(c1)N(Cc1ccc(CN3CCOCC3)cc1)C(=O)CO2` [Example 80, 8-Chloro-4-(4-morpholin-4-ylmethyl-benzyl)-6-(4-oxo-2-thioxo-thiazolidin-5-ylidenemethyl)-4H-1,4-benzoxazin-3-one], the IC50 amounted to 17 nM.
Under `O=C1NC(=S)SC1=Cc1ccc2c(c1)N(Cc1ccccc1)C(=O)CS2` [Example 81, 4-Benzyl-6-(4-oxo-2-thioxo-thiazolidin-5-ylidenemethyl)-4H-1,4-benzothiazin-3-one] stands 29 nM.
Under `CC(C)(C)c1cc(CN2C(=O)CSc3ccc(C=C4SC(=S)NC4=O)cc32)cc(C(C)(C)C)c1` [Example 82, 4-(3,5-Di-tert-butyl-benzyl)-6-(4-oxo-2-thioxo-thiazolidin-5-ylidenemethyl)-4H-1,4-benzothiazin-3-one] stands 3740 nM; under `O=C1CSc2ccc(C=C3SC(=S)NC3=O)cc2N1` [Example 83, 6-(4-Oxo-2-thioxo-thiazolidin-5-ylidenemethyl)-4H-1,4-benzothiazin-3-one], 260 nM; under `O=C1COc2ccc(C=C3OC(=S)NC3=O)cc2N1` [Example 84, 6-(4-Oxo-2-thioxo-oxazolidin-5-ylidenemethyl)-4H-benzo[1,4]oxazin-3-one], 60 nM.
Take `CC(C)(C)c1cc(CN2C(=O)COc3ccc(C=C4SC(=O)NC4=O)cc32)cc(C(C)(C)C)c1` [Example 85, 5-[4-(3,5-Di-tert-butyl-benzyl)-3-oxo-3,4-dihydro-2H-1,4-benzoxazin-6-ylmethylene]-thiazolidine-2,4-dione]: the IC50 worked out at 21 nM.
The result for `O=C1CC(=Cc2ccc3c(c2)NC(=O)CO3)C(=O)N1` [Example 86, 3-(3-Oxo-3,4-dihydro-2H-benzo[1,4]oxazin-6-ylmethylene)-pyrrolidine-2,5-dione] reads 12300 nM; that for `O=C1COc2ccc(C=C3NC(=O)NC3=O)cc2N1` [Example 87, 5-(3-Oxo-3,4-dihydro-2H-benzo[1,4]oxazin-6-ylmethylene)-imidazolidine-2,4-dione], 16100 nM; that for `Cc1ccc(CN2C(=O)COc3ccc(C=C4SC(=S)NC4=O)cc32)c(C)c1` [Example 100, 4-(2,4-Dimethyl-benzyl)-6-(4-oxo-2-thioxo-thiazolidin-5-ylidenemethyl)-4H-1,4-benzoxazin-3-one], 5 nM.
Take `Cc1cccc(CCN2C(=O)COc3ccc(C=C4SC(=S)NC4=O)cc32)c1` [Example 101, 6-(4-Oxo-2-thioxo-thiazolidin-5-ylidenmethyl)-4-[2-m-tolyl-ethyl]-4H-benzo[1,4]oxazin-3-one]: the IC50 came out at 5 nM.
The result for `C[C@@H]1Oc2ccc(C=C3SC(=S)NC3=O)cc2N(CCc2ccc(Cl)c(Cl)c2)C1=O` [Example 109, (S)-4-[2-(3,4-Dichloro-phenyl)-ethyl]-2-methyl-6-(4-oxo-2-thioxo-thiazolidin-5-ylidenmethyl)-4H-benzo[1,4]oxazin-3-one] reads 330 nM; that for `O=C1NC(=S)SC1=Cc1cc(Cl)c2c(c1)N(CCc1ccc(Cl)c(Cl)c1)C(=O)CO2` [Example 110, 8-Chloro-4-[2-(3,4-dichloro-phenyl)-ethyl]-6-(4-oxo-2-thioxo-thiazolidin-5-ylidenmethyl)-4H-benzo[1,4]oxazin-3-one], 55 nM; that for `O=C1NC(=S)SC1=Cc1cc(F)c2c(c1)N(CCc1ccc(Cl)c(Cl)c1)C(=O)CO2` [Example 111, 4-[2-(3,4-dichloro-phenyl)-ethyl]-8-fluoro-6-(4-oxo-2-thioxo-thiazolidin-5-ylidenmethyl)-4H-benzo[1,4]oxazin-3-one], 14 nM.
The result for `Cc1cc(C=C2SC(=S)NC2=O)cc2c1OCC(=O)N2CCc1ccc(Cl)c(Cl)c1` [Example 112, 4-[2-(3,4-dichloro-phenyl)-ethyl]-8-methyl-6-(4-oxo-2-thioxo-thiazolidin-5-ylidenmethyl)-4H-benzo[1,4]oxazin-3-one] reads 22 nM; that for `O=C1NC(=S)SC1=Cc1ccc2c(c1)N(CCc1cc(C(F)(F)F)cc(C(F)(F)F)c1)C(=O)CO2` [Example 113, 4-[2-(Bis-trifluromethyl-phenyl)-ethyl]-6-(4-oxo-2-thioxo-thiazolidin-5-ylidenmethyl)-4H-benzo[1,4]oxazin-3-one], 14 nM; that for `Cc1cc(CN2C(=O)COc3ccc(C=C4SC(=S)NC4=O)cc32)cc(-c2ccoc2)c1` [Example 115, 4-(3-Furan-3-yl-5-methyl-benzyl)-6-(4-oxo-2-thioxo-thiazolidin-5-ylidenemethyl)-4H-benzo[1,4]oxazin-3-one], 15 nM.
The result for `Cc1cc(CN2C(=O)COc3ccc(C=C4SC(=S)NC4=O)cc32)cc(-c2ccsc2)c1` [Example 116, 4-(3-Methyl-5-thiophene-3-yl-benzyl)-6-(4-oxo-2-thioxo-thiazolidin-5-ylidenemethyl)-4H-benzo[1,4]oxazin-3-one] reads 24 nM; that for `Cc1cc(CN2C(=O)COc3ccc(C=C4SC(=S)NC4=O)cc32)cc(-c2c(C)noc2C)c1` [Example 117, 4-[3-(3,5-Dimethyl-isoxazol-4-yl)-5-methyl-benzyl]-6-(4-oxo-2-thioxo-thiazolidin-5-ylidenemethyl)-4H-benzo[1,4]oxazin-3-one], 40 nM.
Consider `COC(=O)c1cc(C)cc(CN2C(=O)COc3ccc(C=C4SC(=S)NC4=O)cc32)c1` [Example 118], for which the IC50 was 23 nM.
With `Cc1cc(CN2C(=O)COc3ccc(C=C4SC(=S)NC4=O)cc32)cc(-c2nccs2)c1` [Example 119, 4-(3-Methyl-5-thiazol-2-yl-benzyl)-6-(4-oxo-2-thioxo-thiazolidin-5-ylidenemethyl)-4H-benzo[1,4]oxzain-3-one], the IC50 came to 19 nM.
Under `Cc1cc(C#N)cc(CN2C(=O)COc3ccc(C=C4SC(=S)NC4=O)cc32)c1` [Example 120] stands 30 nM; under `Cc1cc(CN2C(=O)COc3ccc(C=C4SC(=S)NC4=O)cc32)cc(-c2cnccn2)c1` [Example 121, 4-(3-Methyl-5-pyrazin-2-yl-benzyl)-6-(4-oxo-2-thioxo-thiazolidin-5-ylidenemethyl)-4H-benzo[1,4]oxazin-3-one], 67 nM.
Under `COc1ccc(CCCN2C(=O)COc3ccc(C=C4SC(=S)NC4=O)cc32)cc1` [Example 122, 4-[3-(4-Methoxy-phenyl)-propyl]-6-(4-oxo-2-thioxo-thiazolidin-5-ylidenemethyl)-4H-benzo[1,4]oxazin-3-one] stands 5 nM.
Under `COc1ccc(CCCN2C(=O)COc3ccc(C=C4SC(=O)NC4=O)cc32)cc1` [Example 123, 5-{4-[3-(4-Methoxy-phenyl)-propyl]-3-oxo-3,4-dihydro-2H-benzo[1,4]oxazin-6-ylmethylene}-thiazolidine-2,4-dione] stands 7 nM; under `COc1cc(CCCN2C(=O)COc3ccc(C=C4SC(=S)NC4=O)cc32)cc(OC)c1OC` [Example 124, 6-(4-Oxo-2-thioxo-thiazolidin-5-ylidenemethyl)-4-[3-(3,4,5-trimethoxy-phenyl)-propyl]-4H-benzo[1,4]oxazin-3-one], 15 nM; under `CC(=O)Oc1c(C)cc(CN2C(=O)COc3ccc(C=C4SC(=S)NC4=O)cc32)cc1C` [Example 126, Acetic acid 2,6-dimethyl-4-{3-[3-oxo-6-(4-oxo-2-thioxo-thiazolidin-5-ylidenemethyl)-2,3-dihydro-benzo[1,4]oxazin-4-yl]-methyl}-phenyl ester], 10 nM.
As to `O=C1NC(=S)SC1=Cc1ccc2c(c1)N(CCCc1cccc(Cl)c1Cl)C(=O)CO2` [Example 127, 4-[3-(2,3-Dichloro-phenyl)-propyl]-6-(4-oxo-2-thioxo-thiazolidin-5-ylidenemethyl)-4H-benzo[1,4]oxazin-3-one], the IC50 was found to be 43 nM.
The result for `Cn1nc(C(C)(C)C)cc1CN1C(=O)COc2ccc(C=C3SC(=S)NC3=O)cc21` [Example 128, 4-(5-tert-Butyl-2-methyl-2H-pyrazol-3-ylmethyl)-6-(4-oxo-2-thioxo-thiazolidin-5-ylidenemethyl)-4H-benzo[1,4]oxazin-3-one] reads 180 nM.
Consider `COc1ccc(CCN2C(=O)COc3ccc(C=C4SC(=S)NC4=O)cc32)cc1` [Example 136, 4-[2-(4-Methoxy-phenyl)-ethyl]-6-(4-oxo-2-thioxo-thiazolidin-5-ylidenemethyl)-4H-1,4-benzoxazin-3-one], for which the IC50 is 7 nM.
